Source: patent US9604923B2 (H. LEE MOFFITT CANCER CENTER AND RESEARCH INSTITUTE, INC., priority 2006, dated 2017)

What was measured:
NIH3T3 [1] = assay: Apoptosis by Annexin V binding and Flow Cytometry; assay type: cell-based, mouse
Experimental: (§1) In some cases, cells were first transfected with Stat3C, ST3-NT, or ST3-SH2 domain or mock-transfected for 24 hours prior to treatment with compound for an additional 24-48 hours. Cells were then detached and analyzed by Annexin V binding (BD Biosciences, San Diego) according to the manufacturer's protocol and Flow Cytometry to quantify the percent apoptosis.

[2] = system: MDA-MB-231, MDA-MB-435 and MDA-MB-468; assay: Viable cell number by trypan blue exclusion; assay type: cell-based, human; settings: 100 μM, four days
From the text: (§2) […]. Values are the mean and S.D. of 3-4 independent determinations.
(§3) . The present inventors next determined whether this Stat3 activity inhibitor is able to inhibit the anchorage-dependent and -independent (transformation) growth of human and mouse cancer cell lines and whether this inhibition is dependent on the presence of persistently-active Stat3. […]. […]

MDA-MB-453 [3] = assay: Viable cell number by trypan blue exclusion; assay type: cell-based, human; settings: 100 μM, four days
From the text: as §2, §3

[4] = system: pTyr705 Stat3 in NIH3T3/v-Src fibroblasts; settings: 100 μM, 24-hour treatment
[5] = system: Cyclin D1, Bcl-xL and Survivin in MDA-MB-231; assay: Immunoblot of Stat3-regulated gene products; assay type: cell-based, human; settings: 100, 48 hours
[6] = target: FLAG-ST3:Stat3-YFP complex (Homo sapiens, UniProt P40763); settings: NIH3T3/v-Src, 24 hours
[7] = system: β-Casein promoter-driven Luc; assay: Luciferase reporter assay, v-Src co-transfected NIH3T3; assay type: cell-based, mouse; settings: 100 μM, 24 hours
From the text: (§4) […]; Turkson, J. et al. Mol. Cell.
[…]. […] […].

[8] = system: Stat3-independent luciferase reporter pLucSRE; settings: 100 μM, 24 hours
[9] = system: Cyclin D1, Bcl-xL and Survivin in NIH3T3/v-Src; assay: Immunoblot of Stat3-regulated gene products; assay type: cell-based, mouse; settings: 100, 48 hours
NIH3T3/v-Ras = assay: Soft-agar colony formation assay; assay type: cell-based, mouse; settings: 100 μM every 3 days
Experimental: (§5) Briefly, each well contained 1.5 ml of 1% agarose in Dulbeco's modified Eagle's medium as the bottom layer and 1.5 ml of 0.5% agarose in Dulbeco's modified Eagle's medium containing 4000 or 6000 NIH3T3/v-Src or NIH3T3/v-Ras fibroblasts, respectively, as the top layer. […]. Colonies were quantified by staining with 20 μl of 1 mg/ml iodonitrotetrazolium violet, incubating at 37° C. overnight, and counting the next day.

NIH3T3/v-Src [10] = assay: Soft-agar colony formation assay; assay type: cell-based, mouse; settings: 100 μM every 3 days
Experimental: as §5

NIH3T3 [11] = assay: Viable cell number by trypan blue exclusion; assay type: cell-based, mouse; settings: 100 μM, four days
From the text: as §2, §3

NIH3T3/v-Src [12] = assay: Viable cell number by trypan blue exclusion; assay type: cell-based, mouse; settings: 100 μM, four days
From the text: as §2, §3

Stat5:5 = assay: STATs DNA-binding activity in vitro, EMSA with MGFe probe; parameters: species or system mouse
MDA-MB-231 = assay: Apoptosis by Annexin V binding and Flow Cytometry; assay type: cell-based, human; settings: untransfected or mock-transfected cells; 100 μM
Experimental: as §4, §1
[…]. To this end, the breast carcinoma MDA-MB-231 cells that harbor activated Stat3 were transiently transfected with Stat3C and evaluated for apoptosis. […] […]. There is increased in the background level of cell death, which could be due to the effects of transfection. […].

[13] = system: Stat3-dependent luciferase reporter pLucTKS3; settings: dose-dependent manner
[14] = system: constitutively-active Stat3 in MDA-MB-231, MDA-MB-435 and MDA-MB-468 cells; settings: 100 μM; by 24 hours in text, 48 hours in FIG. 2E legend
[15] = system: constitutively-active Stat3 in NIH3T3/v-Src fibroblasts; settings: 100 μM, by 24 hours
[16] = system: human breast (MDA-MB-231) tumor; assay: Human breast tumor xenografts in athymic nude mice; assay type: in vivo, mouse
MDA-MB-435 = assay: Apoptosis by Annexin V binding and Flow Cytometry; assay type: cell-based, human
Experimental: as §1

MDA-MB-453 [17] = assay: Apoptosis by Annexin V binding and Flow Cytometry; assay type: cell-based, human; settings: 100 μM or less, 48 hours
Experimental: as §1

[18] = system: pShc, pErk1/2, pSrc, pTyr profile in NIH3T3/v-Src or EGF-stimulated NIH3T3/hEGFR; assay: Western blot for other signaling proteins; assay type: cell-based, mouse
NIH3T3/v-Src [19] = assay: Apoptosis by Annexin V binding and Flow Cytometry; assay type: cell-based, mouse
Experimental: . In FIG. 4B, human breast carcinoma MDA-MB-231 cells were transfected with pcDNA3 (mock), Stat3C or untransfected (Non), or the v-Src transformed mouse fibroblasts (NIH3T3/v-Src) were transfected with pcDNA3 (mock), N-terminus of Stat3 (ST3-NT) or the Stat3 SH2 domain (ST3-SH2) for […]. […]. Values are the mean and S.D. of six independent determinations. Western blot data are representative of 3 independent analyses.
as §1

Stat3 = Stat3 (Homo sapiens, UniProt P40763); settings: 10, 30, and 100 μM pre-incubation
Stat3, sequence (P40763 2-770 limits assumed): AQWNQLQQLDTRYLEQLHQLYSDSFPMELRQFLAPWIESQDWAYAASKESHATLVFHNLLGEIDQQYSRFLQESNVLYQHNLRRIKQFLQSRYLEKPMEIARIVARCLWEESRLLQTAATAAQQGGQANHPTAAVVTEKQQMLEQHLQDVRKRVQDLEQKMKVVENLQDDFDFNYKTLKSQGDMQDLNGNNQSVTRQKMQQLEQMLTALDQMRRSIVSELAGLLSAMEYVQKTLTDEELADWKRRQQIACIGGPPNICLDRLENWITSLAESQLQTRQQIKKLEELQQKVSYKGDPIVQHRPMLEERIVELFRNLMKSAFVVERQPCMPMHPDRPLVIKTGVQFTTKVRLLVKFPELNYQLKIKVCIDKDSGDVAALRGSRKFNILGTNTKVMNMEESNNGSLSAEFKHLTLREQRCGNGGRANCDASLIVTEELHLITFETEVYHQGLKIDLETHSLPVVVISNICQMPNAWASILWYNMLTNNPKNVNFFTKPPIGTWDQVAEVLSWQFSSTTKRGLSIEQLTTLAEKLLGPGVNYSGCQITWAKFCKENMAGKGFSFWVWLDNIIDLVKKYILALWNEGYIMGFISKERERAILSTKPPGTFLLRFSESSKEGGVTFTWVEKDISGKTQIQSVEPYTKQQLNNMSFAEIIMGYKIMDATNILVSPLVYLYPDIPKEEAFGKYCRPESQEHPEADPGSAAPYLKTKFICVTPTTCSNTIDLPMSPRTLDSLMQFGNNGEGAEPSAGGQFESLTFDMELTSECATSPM

FLAG-ST3:Stat3-YFP complex, sequence (P40763 whole entry, one chain of several): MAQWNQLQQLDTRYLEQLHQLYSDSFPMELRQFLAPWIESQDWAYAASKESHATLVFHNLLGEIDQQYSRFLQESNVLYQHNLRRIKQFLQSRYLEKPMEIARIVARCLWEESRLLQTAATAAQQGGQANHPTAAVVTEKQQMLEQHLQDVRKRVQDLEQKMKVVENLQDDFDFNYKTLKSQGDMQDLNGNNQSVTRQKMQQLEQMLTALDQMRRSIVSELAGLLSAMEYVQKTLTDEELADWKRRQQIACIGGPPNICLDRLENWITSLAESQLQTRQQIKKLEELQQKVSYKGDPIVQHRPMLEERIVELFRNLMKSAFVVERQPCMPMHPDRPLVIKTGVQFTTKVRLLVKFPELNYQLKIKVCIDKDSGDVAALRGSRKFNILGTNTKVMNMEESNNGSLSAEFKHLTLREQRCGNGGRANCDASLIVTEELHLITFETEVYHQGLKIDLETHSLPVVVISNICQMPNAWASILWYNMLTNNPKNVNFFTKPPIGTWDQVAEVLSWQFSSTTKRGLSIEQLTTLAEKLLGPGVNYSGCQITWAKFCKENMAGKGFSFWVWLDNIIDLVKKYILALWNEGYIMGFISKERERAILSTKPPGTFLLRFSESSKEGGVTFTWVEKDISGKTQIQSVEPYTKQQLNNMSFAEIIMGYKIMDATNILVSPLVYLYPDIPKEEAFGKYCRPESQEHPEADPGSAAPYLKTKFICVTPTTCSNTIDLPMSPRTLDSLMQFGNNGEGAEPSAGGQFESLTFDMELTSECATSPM

FLAG-ST3 protein in the Stat3-YFP immunoprecipitates [6]: no detectable level | Stat3-YFP in the FLAG-ST3 immunoprecipitates [6]: significantly reduced | v-Src-mediated induction of β-Casein promoter Luc [7]: not affected | v-Src-mediated induction of pLucSRE [8]: not affected | preference for Stat3 over Stat5 (less potency for Stat5) (Stat5:5; DNA-binding activity): 2 fold | IC50 (Stat5:5; Table 4, listed as 74859, read-out: IC50 values for the inhibition of STATs DNA-binding activity in vitro, Stat5:5): 166 µM | v-Src-mediated pLucTKS3 induction [13]: significantly inhibited | Stat3 activity in control tumor tissue lysates (Stat3): dose-dependent abrogation
SMILES: Cc1ccc(S(=O)(=O)OCC(=O)Nc2ccc(C(=O)O)c(O)c2)cc1 [Compound S3I-201, 2-Hydroxy-4-(2-(tosyloxy)acetamido)benzoic acid]
sensitivity to apoptosis induction (NIH3T3 [1]; 100 μM or less, 48 hours): less sensitive | cytotoxicity (NIH3T3 [1]; 300 μM or higher, independent of Stat3 activation status): general, non-specific cytotoxicity | viable cell numbers and growth [2]: significantly reduced viable cell numbers and inhibited growth | growth and viability (MDA-MB-453 [3]): not significantly altered | pTyr705 Stat3 levels [4]: significantly diminished | total Stat3 protein level [4]: remained unchanged | expression of the Cyclin D1, Bcl-xL and Survivin proteins [5]: significant reduction in expression | expression of the Cyclin D1, Bcl-xL and Survivin proteins [9]: significant reduction in expression | soft-agar growth (NIH3T3/v-Ras): unaffected | growth in soft-agar suspension (NIH3T3/v-Src [10]): significantly inhibited | growth and viability (NIH3T3 [11]): not significantly altered | viable cell numbers and growth (NIH3T3/v-Src [12]): significantly reduced viable cell numbers and inhibited growth | apoptosis (MDA-MB-231): 50-80% | constitutive Stat3 activation [14]: significantly inhibited | constitutive Stat3 activation [15]: significantly inhibited | tumor growth compared to control (vehicle-treated) tumors ([16]; 5 mg/kg i.v. every 2 or every 3 days for two weeks): strong growth inhibition | tumor growth upon termination of treatment ([16]; data not shown): no resumption of tumor growth | total Stat3 protein in residual tumor tissue ([16]; treated mice T1 and T2): remained unchanged | pTyr Stat3 (pYStat3) in residual tumor tissue ([16]; treated mice T1 and T2 compared to control): minimal to no detection | Stat3 DNA binding activity in residual tumor tissue (EMSA) ([16]; treated mice T1 and T2 compared to control tumor): strong inhibition | sensitivity to apoptosis induction (MDA-MB-435; 30 μM): more sensitive | apoptosis (MDA-MB-435; 30-100, 48 hours): significant apoptosis | sensitivity to apoptosis induction (MDA-MB-453 [17]): less sensitive | phosphorylation of Shc (pShc), Erk1/2 (pErk1/2), or Src (pSrc) ([18]; 100 μM, 24 hours): no significant effect | total Erk1/2 protein levels ([18]; 24 hours): unchanged | pTyr profile, anti-pTyr antibody 4G10 clone ([18]; NIH3T3/v-Src, 24-hour treatment): no significant changes | apoptosis (NIH3T3/v-Src [19]; 30-100, 48 hours): significant apoptosis | apoptosis (NIH3T3/v-Src [19]; cells overexpressing the ST3-NT region): strong induction of apoptosis | apoptosis (NIH3T3/v-Src [19]; mock-transfected cells): strongly induced | apoptosis (NIH3T3/v-Src [19]; overexpression of the Stat3-SH2 domain): diminished the apoptotic effects
